From patent US20230399319A1, “Acylsulfamide Compound and Pharmaceutical Use Therefor” (Japan Tobacco Inc., priority 2019, published 2023)
“And” between values parts separate entries of the source, which are not always exact repeats. Identical values can stand only once.

target: NLRP3 inflammasome (Homo sapiens (Human), UniProt Q96P20); test: Evaluation of NLRP3 inflammasome inhibitory activity (inhibition of IL-1β production in THP1-Null cells, LPS/Nigericin); conditions: not given
Sequence (Q96P20 whole entry): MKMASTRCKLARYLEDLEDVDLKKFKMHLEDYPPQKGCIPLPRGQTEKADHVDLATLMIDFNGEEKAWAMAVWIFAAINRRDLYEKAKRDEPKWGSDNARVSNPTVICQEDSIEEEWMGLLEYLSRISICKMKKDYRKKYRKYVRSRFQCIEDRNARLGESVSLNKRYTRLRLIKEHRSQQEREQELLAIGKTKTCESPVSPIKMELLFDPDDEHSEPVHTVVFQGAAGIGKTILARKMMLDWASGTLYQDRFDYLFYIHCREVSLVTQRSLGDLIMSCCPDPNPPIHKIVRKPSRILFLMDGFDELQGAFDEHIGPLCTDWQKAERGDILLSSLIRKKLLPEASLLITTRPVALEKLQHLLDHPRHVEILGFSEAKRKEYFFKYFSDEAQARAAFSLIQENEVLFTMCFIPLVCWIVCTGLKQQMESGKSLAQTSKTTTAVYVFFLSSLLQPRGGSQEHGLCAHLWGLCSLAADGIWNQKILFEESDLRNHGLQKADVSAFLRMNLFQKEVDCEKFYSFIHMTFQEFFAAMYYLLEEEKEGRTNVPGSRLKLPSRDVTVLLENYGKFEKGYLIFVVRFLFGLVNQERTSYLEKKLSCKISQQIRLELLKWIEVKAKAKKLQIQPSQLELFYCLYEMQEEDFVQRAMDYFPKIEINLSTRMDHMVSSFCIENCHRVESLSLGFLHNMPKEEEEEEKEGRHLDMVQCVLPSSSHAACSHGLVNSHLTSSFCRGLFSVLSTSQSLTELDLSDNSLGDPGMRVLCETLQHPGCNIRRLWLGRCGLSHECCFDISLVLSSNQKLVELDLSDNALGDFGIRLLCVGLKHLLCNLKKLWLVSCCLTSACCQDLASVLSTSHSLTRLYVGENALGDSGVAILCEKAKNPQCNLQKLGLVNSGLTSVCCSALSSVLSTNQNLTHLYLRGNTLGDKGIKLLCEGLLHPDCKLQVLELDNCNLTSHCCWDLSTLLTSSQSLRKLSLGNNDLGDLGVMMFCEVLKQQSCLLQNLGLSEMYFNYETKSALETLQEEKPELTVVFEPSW

Structure (SMILES)	IC50
Cc1ccc(C(F)(F)F)cc1Nc1nc(C(=O)NS(=O)(=O)N2CCOCC2c2ccccc2)co1 (racemic) [Example 2-346]	290 nM
CCOC1COCCN(S(=O)(=O)NC(=O)c2coc(Nc3cc(C(C)C)ccc3C)n2)C1 (racemic) [Example 2-319]	110 nM
O=C(NS(=O)(=O)N1CCC(O)C1)c1coc(Nc2c3c(c(F)c4c2CCC4)CCC3)n1 (racemic) [Example 52]	32 nM
Cc1ccc(C(F)(F)F)cc1Nc1nc(C(=O)NS(=O)(=O)N2CCOCC(C(=O)N(C)C)C2)co1 (racemic) [Example 2-143]	86 nM
COC1COCCN(S(=O)(=O)NC(=O)c2coc(Nc3cc(C(C)(F)F)ccc3C)n2)C1 (racemic) [Example 2-185]	38 nM
COC(=O)CC1COCCN1S(=O)(=O)NC(=O)c1coc(Nc2c3c(c(Cl)c4c2CCC4)CCC3)n1 (racemic) [Example 73]	160 nM
Cc1ccc(C(F)(F)F)cc1Nc1nc(C(=O)NS(=O)(=O)N2CCCC(n3cccn3)CC2)co1 (racemic) [Example 2-273]	24 nM
COC1COCCN(S(=O)(=O)NC(=O)c2coc(Nc3cc(C(F)(F)F)ccc3C)n2)C1 (racemic) [Example 2-076]	25 nM
CC(C)c1cn(C(C)C)nc1Nc1nc(C(=O)NS(=O)(=O)N2CCOCCC2C)co1 (racemic) [Example 2-184]	140 nM
CC(C)c1ccc(C(F)F)cc1Nc1nc(C(=O)NS(=O)(=O)N2CCCN(S(=O)(=O)C3CCOC3)CC2)co1 (racemic) [Example 2-226]	97 nM
CCN(C)C(=O)C1CCCN(S(=O)(=O)NC(=O)c2coc(Nc3cc(C(F)(F)F)ccc3C)n2)CC1 (racemic) [Example 2-246]	67 nM
CCC1COCCN1S(=O)(=O)NC(=O)c1cnc(Nc2c3c(cc4c2CCC4)CCC3)o1 (racemic) [Example 11]	72 nM
CCCS(=O)(=O)C1CCCN(S(=O)(=O)NC(=O)c2coc(Nc3cc(C(F)(F)F)ccc3C)n2)CC1 (stereo not shown) [Example 2-306]	9.8 nM
Cc1ccc(C(F)(F)F)cc1Nc1nc(C(=O)NS(=O)(=O)N2CCN(S(=O)(=O)CCCF)CC(F)C2)co1 (racemic) [Example 2-198]	29 nM
CCCN1CCN(S(=O)(=O)NC(=O)c2coc(Nc3cc(C(F)(F)F)ccc3C)n2)CCC1=O [Example 2-320]	600 nM
CS(=O)(=O)C1CCN(S(=O)(=O)NC(=O)c2coc(Nc3c4c(c(Cl)c5c3CCC5)CCC4)n2)C1 (racemic) [Example 47]	420 nM

same assay, conditions: IL-1β production in THP1-Null cells, PMA/LPS primed, Nigericin 7.5 μmol/L

Structure (SMILES)	IC50
COCCN(C(C)C)S(=O)(=O)NC(=O)c1coc(Nc2c3c(c(Cl)c4c2CCC4)CCC3)n1 [Example 39]	220 nM
C[C@@H]1CCCN1S(=O)(=O)NC(=O)c1coc(Nc2c3c(c(Cl)c4c2CCC4)CCC3)n1 [Example 45]	200 nM
O=C(NS(=O)(=O)N1CCCCC1)c1cnc(Nc2c3c(cc4c2CCC4)CCC3)o1 [Example 3]	91 nM
CC1(O)CCN(S(=O)(=O)NC(=O)c2coc(Nc3c4c(c(F)c5c3CCC5)CCC4)n2)C1 (racemic) [Example 33, 2-((8-fluoro-1,2,3,5,6,7-hexahydro-s-indacen-4-yl)amino)-N-((3-hydroxy-3-methylpyrrolidin-1-yl)sulfonyl)oxazole-4-carboxamide]	99 nM
CN(C)C(=O)C1CCN(S(=O)(=O)NC(=O)c2coc(Nc3c4c(c(F)c5c3CCC5)CCC4)n2)CC1 [Example 63]	900 nM
Cc1cc(Nc2nc(C(=O)NS(=O)(=O)N3CCOC(COC(C)C)CC3)co2)c(C)cc1F (stereo not shown) [Example 3-003]	21 nM
Cc1ccc2c(c1Nc1nc(C(=O)NS(=O)(=O)N3CCOCC3)co1)CCC2 [Example 32]	150 nM
C[C@H]1CCCN1S(=O)(=O)NC(=O)c1coc(Nc2c3c(c(Cl)c4c2CCC4)CCC3)n1 [Example 44]	230 nM
O=C(NS(=O)(=O)N1CCOCC1)c1coc(Nc2c3c(c(F)c4c2CCC4)CCC3)n1 [Example 53]	< 30 nM
O=C(NS(=O)(=O)N1C[C@H]2COC[C@H]2C1)c1coc(Nc2c3c(c(F)c4c2CCC4)CCC3)n1 [Example 60]	130 nM
O=C(NS(=O)(=O)NCc1ccccc1)c1cnc(Nc2c3c(cc4c2CCC4)CCC3)o1 [Example 8]	440 nM
CN(C)S(=O)(=O)NC(=O)c1cnc(Nc2cccc3c2CCC3)o1 [Example 19]	5700 nM
CS(=O)(=O)C1CCN(S(=O)(=O)NC(=O)c2coc(Nc3c4c(c(Cl)c5c3CCC5)CCC4)n2)CC1 [Example 43]	< 30 nM

same assay, conditions: inhibition of IL-1β production in THP1-Null cells

Structure (SMILES)	IC50
Cc1ccc(C(F)(F)F)cc1Nc1nc(C(=O)NS(=O)(=O)N2CCc3nncn3CC2)co1 [Example 2-217]	< 3000 nM
Cc1ccc(C(F)(F)F)cc1Nc1nc(C(=O)NS(=O)(=O)N2CCOC(COC(F)F)CC2)co1 (stereo not shown) [Example 2-324]	17 nM
CCCCS(=O)(=O)N1CCCN(S(=O)(=O)NC(=O)c2coc(Nc3nn(C(C)C)cc3C)n2)CC1 [Example 2-181]	31 nM
Cc1ccc(C(C)C)cc1Nc1nc(C(=O)NS(=O)(=O)N(C)C)cs1 [Example 2-054]	52 nM
O=C(NS(=O)(=O)N1CCOCC1)c1csc(Nc2c3c(cc4c2CCC4)CCC3)n1 [Example 2-012]	60 nM and < 30 nM
CC(C)c1cn(C(C)C)nc1Nc1nc(C(=O)NS(=O)(=O)N2CCCOCC2)co1 [Example 2-116]	85 nM
COC1COCCN(S(=O)(=O)NC(=O)c2coc(Nc3cc(C(F)(F)F)ccc3C)n2)C1 (single isomer, unassigned) [Example 2-218]	72 nM
CCOCC1CCN(S(=O)(=O)NC(=O)c2coc(Nc3nn(C(C)C)cc3C)n2)CCO1 (stereo not shown) [Example 2-333]	78 nM
Cc1ccc(C(F)(F)F)cc1Nc1nc(C(=O)NS(=O)(=O)N2CCOCC2)cs1 [Example 2-065]	32 nM
COCC1CCN(S(=O)(=O)NC(=O)c2coc(Nc3cc(C)ccc3C)n2)CCO1 (stereo not shown) [Example 2-299]	190 nM
CC(C)c1ccc(C(F)(F)F)c(Nc2nc(C(=O)NS(=O)(=O)N3CCCOCC3)co2)c1 [Example 2-176]	18000 nM
COCC1CN(S(=O)(=O)NC(=O)c2coc(Nc3cc(C(F)(F)F)ccc3C)n2)CCO1 (stereo not shown) [Example 2-049]	46 nM
Cc1ccc(S(F)(F)(F)(F)F)cc1Nc1nc(C(=O)NS(=O)(=O)N(C)C)co1 [Example 2-034]	100 nM
Cc1ccc(C(F)(F)F)nc1Nc1nc(C(=O)NS(=O)(=O)N2CCCOCC2)co1 [Example 2-088]	120 nM
CCCS(=O)(=O)N1CCCN(S(=O)(=O)NC(=O)c2coc(Nc3cc(CC)ccc3C)n2)CC1 [Example 2-256]	15 nM
Cc1ccc(C(F)(F)F)cc1Nc1nc(C(=O)NS(=O)(=O)NC(C)C)co1 [Example 2-046]	320 nM
Cc1ccc(C)c(Nc2nc(C(=O)NS(=O)(=O)N3CCCN(c4ncccn4)CC3)co2)c1 [Example 2-275]	160 nM
Cc1ccc(C(F)(F)F)cc1Nc1nc(C(=O)NS(=O)(=O)N2CCOC(C(=O)N(C)C)CC2)co1 (stereo not shown) [Example 2-263]	79 nM
Cc1ccc(C(F)(F)F)cc1Nc1nc(C(=O)NS(=O)(=O)N2CCCN(S(=O)(=O)C3CC3)CC2)co1 [Example 2-103]	20 nM
Cc1ccc2c(c1Nc1nc(C(=O)NS(=O)(=O)N3CCCOCC3)co1)CCC2 [Example 2-097]	150 nM

Structure (SMILES)	IC50
CCCS(=O)(=O)N1CCCN(S(=O)(=O)NC(=O)c2coc(Nc3ccccc3C)n2)CC1 [Example 2-269]	350 nM
Cc1ccc(C(F)(F)F)cc1Nc1nc(C(=O)NS(=O)(=O)N2CCCN(S(=O)(=O)N(C)C)CC2)co1 [Example 2-099]	21 nM
CCCS(=O)(=O)N1CCCN(S(=O)(=O)NC(=O)c2coc(Nc3cc(Br)ccc3C)n2)CC1 [Example 2-292]	34 nM
Cc1ccc(C(F)(F)F)cc1Nc1nc(C(=O)NS(=O)(=O)N2CCNC(=O)CC2)co1 [Example 2-050]	600 nM
CCCCS(=O)(=O)N1CCCN(S(=O)(=O)NC(=O)c2coc(Nc3cc(C(F)(F)F)ccc3C)n2)CC1 [Example 2-126]	10 nM
Cc1ccc(C2(C#N)CC2)cc1Nc1nc(C(=O)NS(=O)(=O)N(C)C)co1 [Example 2-094]	270 nM
Cc1ccc(C(F)F)cc1Nc1nc(C(=O)NS(=O)(=O)N(C)C)co1 [Example 2-010]	120 nM
CC(C)n1cc(Nc2nc(C(=O)NS(=O)(=O)N3CCCOCC3)co2)c(C(C)(C)C)n1 [Example 2-194]	1500 nM
CCCS(=O)(=O)N1CCCN(S(=O)(=O)NC(=O)c2coc(Nc3cc(CC)ccc3CC)n2)CC1 [Example 2-258]	18 nM
Cc1ccc(C(F)(F)F)cc1Nc1nc(C(=O)NS(=O)(=O)N(C)C)cs1 [Example 2-062]	48 nM
CCCCS(=O)(=O)N1CCCN(S(=O)(=O)NC(=O)c2coc(Nc3cc(C(F)F)ccc3C(C)C)n2)CC1 [Example 2-225]	36 nM
Cc1ccc2c(c1Nc1nc(C(=O)NS(=O)(=O)N3CCCOCC3)cs1)CCC2 [Example 2-085]	120 nM
CCOCC1CCN(S(=O)(=O)NC(=O)c2coc(Nc3cc(C(C)C)ccc3C)n2)CCO1 (stereo not shown) [Example 2-325]	25 nM
CCCC(=O)N1CCCN(S(=O)(=O)NC(=O)c2coc(Nc3cc(C(F)F)ccc3C(C)C)n2)CC1 [Example 2-223]	71 nM
CC(C)c1nn(C(C)C)cc1Nc1nc(C(=O)NS(=O)(=O)N2CCCOCC2)co1 [Example 2-090]	570 nM
CC(C)c1ccc(C(C)C)c(Nc2nc(C(=O)NS(=O)(=O)N(C)C)co2)c1 [Example 2-070]	120 nM
Cc1ccc(C(F)(F)F)cc1Nc1nc(C(=O)NS(=O)(=O)N2CCCN(c3nccc(C(C)C)n3)CC2)co1 [Example 2-186]	41 nM
COCC1CCN(S(=O)(=O)NC(=O)c2coc(Nc3cc(C(F)F)ccc3C)n2)CCO1 (stereo not shown) [Example 2-327]	29 nM
CCCCS(=O)(=O)N1CCCN(S(=O)(=O)NC(=O)c2coc(Nc3nn(C(C)C)cc3C(C)C)n2)CC1 [Example 2-177]	47 nM

same assay, conditions: read-out: % inhibition at 3 μM

Structure (SMILES)	inhibition at 3 µM
CC(C)c1cnc(C(F)(F)F)nc1Nc1nc(C(=O)NS(=O)(=O)N2CCCOCC2)co1 [Example 2-144]	23%

same assay, conditions: read-out: Inhibition at 30 μM

Structure (SMILES)	inhibition at 30 µM
CC(C)c1cccc(C(C)C)c1Nc1ncc(C(=O)NS(=O)(=O)N(C)C)o1 [Example 20]	48%
